Like-named read-outs stand apart in the source and are kept apart here.
Key:
[1] = system: Ba/F3 cells containing Ros1 wild-type protein + IL-3; experiment: Ba/F3-Ros1 cell proliferation counter-screen, wild-type protein in the presence of 10 ng/ml murine IL-3; format: cell-based; details: Mus musculus, BaF3, 24 h, read-out: BaF3-ROS1 + IL3 pIC50 (converted)
Outline: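 Ba/F3 cells expressing wild-type Ros1, 20000 per well in RPMI-1640 with 10% FBS, cultured with compounds for 24 h at 37 °C with 10 ng/ml murine IL-3. Alamar Blue (resazurin) then added for 4 h. Fluorescence read at ex 540/em 590 nm.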

[2] = target: Ba/F3 cells containing Ros1 with a mutation at the gatekeeper residue (L2026M) (Homo sapiens, UniProt P08922, L2026M, cells depend on it, form not given); experiment: Ba/F3-Ros1 cell proliferation assay, L2026M gatekeeper mutant; format: cell-based, murine; details: without IL-3
Chain of Ba/F3 cells containing Ros1 with a mutation at the gatekeeper residue (L2026M) (P08922 whole entry L2026M, form open): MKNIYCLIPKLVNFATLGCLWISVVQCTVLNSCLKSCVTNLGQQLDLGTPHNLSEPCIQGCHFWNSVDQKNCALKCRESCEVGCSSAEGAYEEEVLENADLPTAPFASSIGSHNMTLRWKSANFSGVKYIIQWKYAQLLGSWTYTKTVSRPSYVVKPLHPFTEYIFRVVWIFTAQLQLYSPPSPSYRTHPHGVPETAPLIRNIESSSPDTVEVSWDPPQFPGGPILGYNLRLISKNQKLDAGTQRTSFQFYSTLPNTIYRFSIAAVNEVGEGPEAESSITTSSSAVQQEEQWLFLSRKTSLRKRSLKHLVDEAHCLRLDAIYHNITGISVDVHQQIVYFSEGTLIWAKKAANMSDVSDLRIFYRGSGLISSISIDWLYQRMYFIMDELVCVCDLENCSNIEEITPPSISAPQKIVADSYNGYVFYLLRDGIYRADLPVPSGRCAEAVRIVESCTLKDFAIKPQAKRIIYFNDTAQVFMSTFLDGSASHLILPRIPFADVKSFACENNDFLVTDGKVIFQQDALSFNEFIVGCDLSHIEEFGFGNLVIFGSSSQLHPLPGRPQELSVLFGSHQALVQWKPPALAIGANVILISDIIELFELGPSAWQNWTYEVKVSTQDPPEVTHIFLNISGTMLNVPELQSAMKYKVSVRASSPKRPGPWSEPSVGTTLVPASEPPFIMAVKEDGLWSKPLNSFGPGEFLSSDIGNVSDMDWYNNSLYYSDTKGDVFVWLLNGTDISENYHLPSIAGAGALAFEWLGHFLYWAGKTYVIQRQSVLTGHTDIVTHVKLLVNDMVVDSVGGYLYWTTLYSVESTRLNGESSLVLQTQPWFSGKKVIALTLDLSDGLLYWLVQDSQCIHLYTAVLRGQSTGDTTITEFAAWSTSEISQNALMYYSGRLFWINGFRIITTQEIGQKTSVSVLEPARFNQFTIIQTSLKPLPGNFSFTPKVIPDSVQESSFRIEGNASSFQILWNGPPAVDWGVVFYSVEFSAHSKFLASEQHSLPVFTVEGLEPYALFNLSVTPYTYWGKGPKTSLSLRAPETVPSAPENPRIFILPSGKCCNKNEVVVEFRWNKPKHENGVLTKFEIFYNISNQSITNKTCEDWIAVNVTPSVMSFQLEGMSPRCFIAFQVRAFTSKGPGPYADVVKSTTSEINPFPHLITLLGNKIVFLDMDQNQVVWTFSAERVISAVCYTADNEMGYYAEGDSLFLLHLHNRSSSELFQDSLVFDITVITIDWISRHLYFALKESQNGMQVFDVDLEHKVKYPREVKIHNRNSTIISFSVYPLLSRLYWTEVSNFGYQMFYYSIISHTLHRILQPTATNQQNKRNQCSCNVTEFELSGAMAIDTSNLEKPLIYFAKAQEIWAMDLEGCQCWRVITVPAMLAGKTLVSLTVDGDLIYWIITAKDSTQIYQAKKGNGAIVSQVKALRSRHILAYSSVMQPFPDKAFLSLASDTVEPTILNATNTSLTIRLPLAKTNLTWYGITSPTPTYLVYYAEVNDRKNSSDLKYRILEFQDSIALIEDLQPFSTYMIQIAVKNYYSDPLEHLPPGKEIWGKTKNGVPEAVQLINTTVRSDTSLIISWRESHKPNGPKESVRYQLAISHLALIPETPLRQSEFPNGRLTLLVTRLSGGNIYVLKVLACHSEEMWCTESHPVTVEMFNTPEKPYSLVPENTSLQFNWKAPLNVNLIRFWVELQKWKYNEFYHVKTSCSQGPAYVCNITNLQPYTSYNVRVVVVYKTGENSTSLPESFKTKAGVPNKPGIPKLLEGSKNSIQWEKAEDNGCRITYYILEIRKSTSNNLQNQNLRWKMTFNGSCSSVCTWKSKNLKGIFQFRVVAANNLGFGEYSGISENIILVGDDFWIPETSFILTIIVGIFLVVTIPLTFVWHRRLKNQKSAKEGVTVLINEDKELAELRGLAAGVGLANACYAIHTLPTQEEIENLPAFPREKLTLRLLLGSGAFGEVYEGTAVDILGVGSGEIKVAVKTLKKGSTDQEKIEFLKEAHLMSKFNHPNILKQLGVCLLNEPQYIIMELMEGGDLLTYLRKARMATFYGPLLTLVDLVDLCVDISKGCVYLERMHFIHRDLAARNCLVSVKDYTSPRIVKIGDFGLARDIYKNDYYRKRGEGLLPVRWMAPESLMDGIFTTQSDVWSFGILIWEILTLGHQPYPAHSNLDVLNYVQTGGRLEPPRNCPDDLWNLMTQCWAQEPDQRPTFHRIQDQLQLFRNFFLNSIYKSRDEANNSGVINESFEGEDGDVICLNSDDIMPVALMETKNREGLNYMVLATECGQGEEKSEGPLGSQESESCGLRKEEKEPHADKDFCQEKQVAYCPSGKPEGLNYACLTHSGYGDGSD
Outline: (§1)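 Ba/F3 cells expressing wild-type, L2026M or G2032R Ros1 (20000 per well) were incubated with DMSO-solubilized compounds in phenol red-free RPMI-1640 with 10% FBS and 2 mM L-glutamine at 37 °C, 5% CO2 for 24 hours. Viability was then read by Alamar Blue fluorescence (ex 540/em 590 nm) after 4 h.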

[3] = target: T1, Ba/F3 cells containing Ros1 wild-type protein (Homo sapiens, UniProt P08922, cells depend on it, form not given); experiment: Ba/F3-Ros1 cell proliferation assay, wild-type Ros1; format: cell-based, murine; details: without IL-3
T1 construct: The background only speaks of 'a number of different unrelated proteins' and names SLC34A2-ROS1 for HCC78 cells
T1 sequence (P08922 whole entry, stated change not applied): as the sequence (P08922 whole entry L2026M, form open) above, with M2026L counted along it
Outline: as §1

[4] = system: HCC78 non-small cell lung cancer cells; experiment: HCC78 cell proliferation assay; format: cell-based; details: for EC50: Homo sapiens, HCC78, 96 h, read-out: HCC-78 PROL pEC50 (converted)
Description: HCC78 Cell Proliferation Assay
Approximately 1000 HCC78 non-small cell lung cancer cells in 180 μl of cell culture medium (RPMI-1640, 10% FBS, 2 mM L-Glutamine, 10 mM Hepes, 1 mM sodium pyruvate, 4.5 g/L glucose, 1.5 g/L sodium bicarbonate, 25 μg/ml Gentamycin) were seeded in each well of a 96-well polystyrene, tissue-culture treated plate and incubated at 37° C. and 5% CO2. After 24 hours, compounds were diluted in cell culture medium from which 20 μl was added to the wells containing cells and incubated for 4 days at 37° C. and 5% CO2. A 5 mg/ml solution of the tetrazolium dye MTT was prepared in PBS (phosphate-buffered saline) and 25 μl was added to each well. After 2 hours the medium was removed and replaced by 125 μL of 4/1 DMSO/glycine buffer (0.1M glycine, 0.1M NaCl, pH 10.5) before absorbance was determined at 538 nm.

Ros1 enzyme = target: T2, Ros1 enzyme (Homo sapiens, UniProt P08922); experiment: Ros1 enzymatic assay; format: biochemical; details: Ros1 enzymatic assay; for IC50: read-out: ROS1 pIC50 (converted)
T2 construct: 0.5 μg/ml Ros1 enzyme
T2 sequence (P08922 28-2347): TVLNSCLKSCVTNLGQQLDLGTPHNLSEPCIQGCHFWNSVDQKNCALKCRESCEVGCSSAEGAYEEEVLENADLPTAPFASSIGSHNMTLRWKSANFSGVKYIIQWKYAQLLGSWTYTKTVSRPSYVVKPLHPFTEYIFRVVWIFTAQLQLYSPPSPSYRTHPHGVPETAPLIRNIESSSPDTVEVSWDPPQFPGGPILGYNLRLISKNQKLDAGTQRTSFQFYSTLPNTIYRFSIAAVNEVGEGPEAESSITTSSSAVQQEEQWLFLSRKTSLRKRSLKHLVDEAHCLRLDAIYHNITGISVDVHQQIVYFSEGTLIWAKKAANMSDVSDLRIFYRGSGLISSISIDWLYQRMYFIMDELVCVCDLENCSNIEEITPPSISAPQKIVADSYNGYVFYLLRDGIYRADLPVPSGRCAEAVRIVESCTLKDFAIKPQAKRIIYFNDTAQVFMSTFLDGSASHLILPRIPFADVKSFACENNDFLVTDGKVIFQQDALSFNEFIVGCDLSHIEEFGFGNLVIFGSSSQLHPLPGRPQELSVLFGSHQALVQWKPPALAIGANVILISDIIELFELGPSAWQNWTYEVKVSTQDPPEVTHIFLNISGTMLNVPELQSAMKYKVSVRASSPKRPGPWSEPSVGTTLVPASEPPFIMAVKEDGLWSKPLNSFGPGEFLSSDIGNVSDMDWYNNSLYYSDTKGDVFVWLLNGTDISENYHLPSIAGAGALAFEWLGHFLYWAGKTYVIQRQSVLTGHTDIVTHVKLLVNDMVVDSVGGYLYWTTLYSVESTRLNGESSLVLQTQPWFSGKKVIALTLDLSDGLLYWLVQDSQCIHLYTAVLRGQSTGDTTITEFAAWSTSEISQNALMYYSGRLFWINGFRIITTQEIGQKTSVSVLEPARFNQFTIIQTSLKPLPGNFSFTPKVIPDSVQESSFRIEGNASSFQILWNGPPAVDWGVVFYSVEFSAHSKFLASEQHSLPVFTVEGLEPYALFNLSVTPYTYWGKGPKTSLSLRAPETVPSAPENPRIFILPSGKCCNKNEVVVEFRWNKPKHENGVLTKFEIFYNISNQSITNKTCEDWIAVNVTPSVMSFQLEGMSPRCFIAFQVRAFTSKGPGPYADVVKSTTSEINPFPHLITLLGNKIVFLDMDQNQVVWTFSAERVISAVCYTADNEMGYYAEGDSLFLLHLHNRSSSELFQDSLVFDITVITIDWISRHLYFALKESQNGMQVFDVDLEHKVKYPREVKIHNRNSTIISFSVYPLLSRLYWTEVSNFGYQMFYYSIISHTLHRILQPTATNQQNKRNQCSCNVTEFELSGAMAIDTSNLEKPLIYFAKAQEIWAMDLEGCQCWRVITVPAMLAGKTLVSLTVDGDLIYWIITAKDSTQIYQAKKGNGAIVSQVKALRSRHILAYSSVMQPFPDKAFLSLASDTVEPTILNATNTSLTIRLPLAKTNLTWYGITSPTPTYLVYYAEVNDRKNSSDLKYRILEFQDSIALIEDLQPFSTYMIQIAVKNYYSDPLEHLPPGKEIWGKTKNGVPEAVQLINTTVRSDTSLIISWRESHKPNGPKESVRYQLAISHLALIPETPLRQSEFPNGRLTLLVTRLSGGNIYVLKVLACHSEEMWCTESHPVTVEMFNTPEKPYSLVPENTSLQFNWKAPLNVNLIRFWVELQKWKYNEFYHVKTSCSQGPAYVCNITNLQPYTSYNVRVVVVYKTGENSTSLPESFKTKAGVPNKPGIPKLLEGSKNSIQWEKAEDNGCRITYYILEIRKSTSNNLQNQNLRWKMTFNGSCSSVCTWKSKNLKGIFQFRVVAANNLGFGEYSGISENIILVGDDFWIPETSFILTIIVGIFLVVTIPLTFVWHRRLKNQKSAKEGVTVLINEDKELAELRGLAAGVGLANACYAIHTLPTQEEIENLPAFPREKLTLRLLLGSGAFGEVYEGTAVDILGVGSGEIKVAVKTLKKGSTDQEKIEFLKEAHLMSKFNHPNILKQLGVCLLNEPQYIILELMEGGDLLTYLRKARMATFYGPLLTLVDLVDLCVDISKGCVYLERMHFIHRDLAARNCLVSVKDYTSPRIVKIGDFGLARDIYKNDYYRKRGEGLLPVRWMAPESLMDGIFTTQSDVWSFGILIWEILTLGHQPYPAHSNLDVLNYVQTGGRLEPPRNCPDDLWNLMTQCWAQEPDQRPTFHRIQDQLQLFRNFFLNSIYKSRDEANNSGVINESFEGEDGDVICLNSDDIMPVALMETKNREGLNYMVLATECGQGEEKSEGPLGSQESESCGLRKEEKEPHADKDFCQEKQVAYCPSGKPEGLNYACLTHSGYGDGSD
Outline: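 A radiometric assay mixed enzyme mix (0.5 μg/ml human Ros1) with substrate mix (6 μg/ml biotinylated IRS-Tide, 20 μM ATP plus [33P]ATP), both in 50 mM Tris-HCl pH 7.5, 10 mM MgCl2, 1 mM EGTA, 0.01% Tween-20. The reaction ran 120 min at room temperature, was stopped with EDTA plus streptavidin imaging beads, and was read by LEADseeker imaging.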

[5] = counter-screen, wild-type, 10 ng/ml murine IL-3

Compound: CC(C)c1ccc(C2CNc3cc(-c4c(-c5ccncc5)nn5c4C(=O)NCC5)ccc3O2)cc1 (racemic) [Compound 226]
- CC50 [1, 5]: > 10000 nM
- Ba/F3 Ros1 L2026M (-IL-3) pIC50 [2]: 6.8
- melting point: 252 °C
- BaF3-ROS1-IL3 pIC50 [3]: 7.1
- EC50 ([4]; HCC78 cells, 4 days, MTT): 501 nM
- IC50 (Ros1 enzyme): 631 nM

Compound: CC(C)c1ccc(COc2ccc(-c3c(-c4ccncc4)nn4c3C(=O)NCC4)cc2)cc1CCO [Compound 11]
- CC50 [1]: > 10000 nM
- Ba/F3 Ros1 L2026M (-IL-3) pIC50 [2]: 7.8
- melting point: 195 °C
- BaF3-ROS1-IL3 pIC50 [3]: 7.7
- EC50 [4]: 31.6 nM
- IC50 (Ros1 enzyme): 10 nM

Compound: CC(C)c1ccc(COc2ccc(-c3c(-c4ccncc4)nn4c3C(=O)NCC4)c(F)c2F)cc1 [Compound 16]
- CC50 [1]: > 10000 nM
- Ba/F3 Ros1 L2026M (-IL-3) pIC50 [2]: 7.1
- melting point: 214 °C
- BaF3-ROS1-IL3 pIC50 [3]: 7.4
- EC50 [4]: 398 nM
- IC50 (Ros1 enzyme): 100 nM

Compound: CC(C)c1ccc(COc2ccc(-c3c(-c4ccncc4)nn4c3C(=O)N(CCO)CC4)c(F)c2F)cc1 [Compound 20]
- CC50 [1]: > 10000 nM
- Ba/F3 Ros1 L2026M (-IL-3) pIC50 [2]: 7.0
- melting point: 138 °C
- BaF3-ROS1-IL3 pIC50 [3]: 6.9
- EC50 [4]: 1580 nM
- IC50 (Ros1 enzyme): 100 nM

Compound: CC(C)c1ccc(COc2ccc(-c3c(-c4ccncc4)nn4c3C(=O)N(CC(O)CO)CC4)c(F)c2)cc1 (stereo not shown) [Compound 23]
- CC50 [1, 5]: > 10000 nM
- Ba/F3 Ros1 L2026M (-IL-3) pIC50 [2]: 7.2
- melting point: 192 °C
- BaF3-ROS1-IL3 pIC50 [3]: 7.7
- HCC-78 PROL pEC50 ([4]; HCC78 cells, 4 days, MTT): 7.2
- IC50 (Ros1 enzyme): 12.6 nM

Compound: CC(C)c1ccc(COc2ccc(-c3c(-c4ccncc4)nn4c3C(=O)NCC4)c(Cl)c2)cc1 [Compound 24]
- CC50 [1]: > 10000 nM
- Ba/F3 Ros1 L2026M (-IL-3) pIC50 [2]: 8.2
- melting point: 267 °C
- BaF3-ROS1-IL3 pIC50 [3]: 7.8
- EC50 [4]: 1.58 nM
- IC50 (Ros1 enzyme): 7.94 nM

Compound: CC(C)c1ccc(COc2ccc(-c3c(-c4ccncc4)nn4c3C(=O)NCC4)cc2Cl)cc1 [Compound 25]
- CC50 [1]: > 10000 nM
- Ba/F3 Ros1 L2026M (-IL-3) pIC50 [2]: 6.5
- melting point: 251 °C
- BaF3-ROS1-IL3 pIC50 [3]: 6.8
- EC50 [4]: 501 nM
- IC50 (Ros1 enzyme): 126 nM

Compound: CC(C)c1ccc(COc2ccc(-c3c(-c4ccncc4)nn4c3C(=O)NCC4)c(C#N)c2)cc1 [Compound 27]
- CC50 [1]: > 10000 nM
- Ba/F3 Ros1 L2026M (-IL-3) pIC50 [2]: 7.1
- melting point: 268 °C
- BaF3-ROS1-IL3 pIC50 [3]: 7.7
- EC50 [4]: 20 nM
- IC50 (Ros1 enzyme): 15.8 nM

Compound: Cc1cc(-c2c(-c3ccncc3)nn3c2C(=O)NCC3)cc(C)c1OCc1ccc(C(C)C)cc1 [Compound 29]
- CC50 [1]: > 10000 nM
- Ba/F3 Ros1 L2026M (-IL-3) pIC50 [2]: <5
- melting point: 260 °C
- BaF3-ROS1-IL3 pIC50 [3]: <5
- EC50 [4]: > 10000 nM
- IC50 (Ros1 enzyme): > 10000 nM

Compound: Cc1cc(-c2c(-c3ccncc3)nn3c2C(=O)N(CCO)CC3)cc(C)c1OCc1ccc(C(C)C)cc1 [Compound 30]
- CC50 [1]: > 10000 nM
- Ba/F3 Ros1 L2026M (-IL-3) pIC50 [2]: <5
- melting point: 170 °C
- BaF3-ROS1-IL3 pIC50 [3]: <5
- EC50 [4]: > 10000 nM
- IC50 (Ros1 enzyme): > 10000 nM

Compound: COc1cc(-c2c(-c3ccncc3)nn3c2C(=O)NCC3)cc(OC)c1OCc1ccc(C(C)C)cc1 [Compound 35]
- CC50 [1]: > 10000 nM
- Ba/F3 Ros1 L2026M (-IL-3) pIC50 [2]: 5.8
- melting point: 192 °C
- BaF3-ROS1-IL3 pIC50 [3]: 5.7
- EC50 [4]: > 10000 nM
- IC50 (Ros1 enzyme): 5010 nM

Compound: COc1cc(-c2c(-c3ccncc3)nn3c2C(=O)N(CCO)CC3)cc(OC)c1OCc1ccc(C(C)C)cc1 [Compound 36]
- CC50 [1]: > 10000 nM
- Ba/F3 Ros1 L2026M (-IL-3) pIC50 [2]: 5.7
- melting point: 176 °C
- BaF3-ROS1-IL3 pIC50 [3]: 5.8
- EC50 [4]: > 10000 nM
- IC50 (Ros1 enzyme): 5010 nM

Compound: CC(C)c1ccc(COc2ccc(-c3c(-c4ccncc4)nn4c3C(=O)N(CC3COC(C)(C)O3)CC4)cc2)cc1 (stereo not shown) [Compound 42]
- CC50 [1, 5]: > 10000 nM
- Ba/F3 Ros1 L2026M (-IL-3) pIC50 [2]: 6.3
- melting point: 114 °C
- BaF3-ROS1-IL3 pIC50 [3]: 6.7
- EC50 ([4]; HCC78 cells, 4 days, MTT): 1260 nM
- IC50 (Ros1 enzyme): 398 nM

Compound: CC(C)c1ccc(COc2ccc(-c3c(-c4ccncc4)nn4c3C(=O)N(CC(O)CO)CC4)cc2)cc1 (stereo not shown) [Compound 43]
- CC50 [1, 5]: > 10000 nM
- Ba/F3 Ros1 L2026M (-IL-3) pIC50 [2]: 7.3
- melting point: 190 °C
- BaF3-ROS1-IL3 pIC50 [3]: 7.4
- HCC-78 PROL pEC50 ([4]; HCC78 cells, 4 days, MTT): 6.9
- IC50 (Ros1 enzyme): 50.1 nM

Compound: CC(C)OCC(O)CN1CCn2nc(-c3ccncc3)c(-c3ccc(OCc4ccc(C(C)C)cc4)cc3)c2C1=O (stereo not shown) [Compound 45]
- CC50 [1]: > 10000 nM
- Ba/F3 Ros1 L2026M (-IL-3) pIC50 [2]: 6.6
- melting point: 148 °C
- BaF3-ROS1-IL3 pIC50 [3]: 6.7
- EC50 [4]: 1260 nM
- IC50 (Ros1 enzyme): 158 nM

Compound: COCCN1CCn2nc(-c3ccncc3)c(-c3ccc(OCc4ccc(C(C)C)cc4)cc3)c2C1=O [Compound 50]
- CC50 [1]: > 10000 nM
- Ba/F3 Ros1 L2026M (-IL-3) pIC50 [2]: 7.2
- melting point: 167 °C
- BaF3-ROS1-IL3 pIC50 [3]: 7.1
- EC50 [4]: 158 nM
- IC50 (Ros1 enzyme): 50.1 nM

Compound: CC(C)c1cc(F)c(COc2ccc(-c3c(-c4ccncc4)nn4c3C(=O)N(CC(O)CO)CC4)cc2)c(F)c1 (stereo not shown) [Compound 96]
- Ba/F3 Ros1 L2026M (-IL-3) pIC50 [2]: 6.6
- melting point: 228 °C
- BaF3-ROS1-IL3 pIC50 [3]: 6.9
- HCC-78 PROL pEC50 ([4]; HCC78 cells, 4 days, MTT): 5.9
- ROS1 pIC50 (Ros1 enzyme): 6.8

Compound: CC(C)c1cc(F)c(COc2ccc(-c3c(-c4ccncc4)nn4c3C(=O)N(CC(O)CO)CC4)cc2)cc1F (stereo not shown) [Compound 99]
- Ba/F3 Ros1 L2026M (-IL-3) pIC50 [2]: 6.0
- melting point: 183 °C
- BaF3-ROS1-IL3 pIC50 [3]: 6.6
- HCC-78 PROL pEC50 ([4]; HCC78 cells, 4 days, MTT): 5.7
- IC50 (Ros1 enzyme): 501 nM

Compound: CC(C)(CN)c1ccc(COc2ccc(-c3c(-c4ccncc4)nn4c3C(=O)NCC4)cc2)cc1 [Compound 121]
- CC50 [1, 5]: > 10000 nM
- Ba/F3 Ros1 L2026M (-IL-3) pIC50 [2]: 5.9
- melting point: 233 °C
- BaF3-ROS1-IL3 pIC50 [3]: 6.3
- EC50 ([4]; HCC78 cells, 4 days, MTT): 1000 nM

Compound: CC(O)CN1CCn2nc(-c3ccncc3)c(-c3ccc(OCc4ccc(C5CC5)cc4)cc3)c2C1=O (stereo not shown) [Compound 135]
- Ba/F3 Ros1 L2026M (-IL-3) pIC50 [2]: 7.0
- melting point: 197 °C
- BaF3-ROS1-IL3 pIC50 [3]: 7.3
- HCC-78 PROL pEC50 ([4]; HCC78 cells, 4 days, MTT): 6.5
- IC50 (Ros1 enzyme): 158 nM

Compound: CC(O)CN1CCn2nc(-c3ccncc3)c(-c3ccc(OCc4ccc(C(C)C)cc4)cc3)c2C1 (stereo not shown) [Compound 192]
- Ba/F3 Ros1 L2026M (-IL-3) pIC50 [2]: 6.9
- melting point: 151 °C
- BaF3-ROS1-IL3 pIC50 [3]: 6.9
- HCC-78 PROL pEC50 ([4]; HCC78 cells, 4 days, MTT): 6.2
- ROS1 pIC50 (Ros1 enzyme): 6.8

— patent US10280170B2, “Substituted 4,5,6,7-tetrahydro-pyrazolo[1,5-a]pyrazine derivatives and 5,6,7,8-tetrahydro-4H-pyrazolo[1,5-a][1,4]diazepine derivatives as Ros1 inhibitors” (Janssen Pharmaceutica NV, priority 2014, dated 2019)
